From patent publication US6875761B2 (Eisai Co., Ltd., priority 1997, dated 2005) come the findings set out here.

pKi: −log10 of the molar value. Counter-ions that a name gives are not always drawn.

The target in one assay is T1, serotonin 2 receptor (Rattus norvegicus, UniProt P14842).
T1 construct: To the receptor fraction of the cerebral cortex were added a test compound and 0.3 nM of [^3H] ketanserin; from tissue; host or cells: rat cerebral cortex membrane fraction
Briefly: Binding test on [3H] ketanserin, cerebral cortex receptor fraction. Details: species or system SD rats. The conditions noted are these: 0.3 nM [3H] ketanserin, 37° C. 15 min, read-out: 5HT2.

In a further assay the target is T2, serotonin 1A receptor (Rattus norvegicus, UniProt P19327).
T2 construct: To the receptor fraction of the hippocampus were added a test compound and 0.5 nM of [^3H]; 8-hydroxy-dipropylaminotetralin; from tissue; host or cells: rat hippocampus membrane fraction
T2 sequence (P19327 1-422): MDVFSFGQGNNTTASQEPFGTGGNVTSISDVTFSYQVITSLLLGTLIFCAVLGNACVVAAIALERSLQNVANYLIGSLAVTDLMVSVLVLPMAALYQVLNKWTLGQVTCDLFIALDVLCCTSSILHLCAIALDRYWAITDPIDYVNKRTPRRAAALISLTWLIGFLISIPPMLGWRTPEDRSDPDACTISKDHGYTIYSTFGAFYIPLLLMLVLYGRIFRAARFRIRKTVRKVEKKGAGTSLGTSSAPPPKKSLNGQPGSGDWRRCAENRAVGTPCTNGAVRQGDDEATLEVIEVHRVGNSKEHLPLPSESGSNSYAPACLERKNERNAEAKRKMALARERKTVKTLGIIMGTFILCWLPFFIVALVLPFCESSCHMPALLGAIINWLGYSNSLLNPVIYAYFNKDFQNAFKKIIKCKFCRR
Briefly: Binding test on [3H] 8-hydroxy-dipropylaminotetralin, hippocampus receptor fraction. On the set-up: species or system SD rats. Particulars: rat hippocampus receptor fraction, 0.5 nM [3H] 8-OH-DPAT, room temperature 30 min; read-out: 5HT1.

T1 sequence (P14842 whole entry): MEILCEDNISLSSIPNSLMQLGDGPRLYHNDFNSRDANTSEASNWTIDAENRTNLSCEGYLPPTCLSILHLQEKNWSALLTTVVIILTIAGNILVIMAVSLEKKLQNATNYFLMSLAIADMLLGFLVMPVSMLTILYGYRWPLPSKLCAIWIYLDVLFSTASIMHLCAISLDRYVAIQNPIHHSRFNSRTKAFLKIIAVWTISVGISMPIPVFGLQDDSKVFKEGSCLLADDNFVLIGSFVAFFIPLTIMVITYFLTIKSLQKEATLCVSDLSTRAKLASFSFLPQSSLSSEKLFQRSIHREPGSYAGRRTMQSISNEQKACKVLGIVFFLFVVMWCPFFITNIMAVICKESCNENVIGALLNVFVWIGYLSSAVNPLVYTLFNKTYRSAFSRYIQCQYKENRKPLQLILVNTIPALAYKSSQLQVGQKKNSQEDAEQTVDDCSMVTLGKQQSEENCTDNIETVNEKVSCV
Protocol for serotonin 1A receptor: (1) Binding test on serotonin 1A, serotonin 2 and α1 adrenalin receptors
The following reagents were employed in this test. • 1) Serotonin binoxalate (5-HT binoxalate, mfd. by Sigma Chemical Co.). • 2) Methysergide maleate (mfd. by RBI).
As radioisotope-labeled compounds, use was made of the following reagents (mfd. by NEN). • 3) [^3H] 8-Hydroxy-dipropylaminotetralin (8-OH-DPAT). • 4) [^3H]
Methysergide maleate was dissolved in distilled water before using.
Use was made of SD rats aged 6 to 8 weeks.
The rats were sacrificed by dcapitation to extirpate the cerebra. The hippocampus and cortex were separated therefrom and employed in the binding tests respectively on the serotonin 1A receptor and the serotonin 2 receptor.
The hippocampus was mixed with 50 times (on the wet weight basis) as much as 0.32 M sucrose solution while the cortex was mixed with 10 times as much the same solution. Each mixture was homogenized by using a Teflon glass homogenizer and centrifuged as 1,000× g for 10 min. The supernatant thus obtained was further centrifuged at 20,000× g for 20 min. The obtained precipitate was re-suspended in 50 times (based on the initial wet weight; in the case of the hippocampus) or 10 times (in the case of the cortex) as much a 50 Tris hydrochloride (pH 7.4) and incubated at room temperature for 30 min. After centrifuging at 20,000× g for 20 min, the obtained precipitate was further suspended and centrifuged twice each in the same manner. The precipitate thus obtained was suspended in 100 times (based on the initial wet weight; in the case of the hippocampus) or 20 times (in the case of the cortex) as much a 50 mM Tris hydrochloride solution (pH 7.4) to thereby give a receptor fraction. This receptor fraction was stored at −80° C. until using.
To the receptor fraction of the hippocampus were added a test compound and 0.5 nM of [^3H] 8-hydroxy-dipropylaminotetralin and the resultant mixture was incubated at room temperature for 30 min. Next, it was filtered through a glass filter with the use of a cell harvester. After washing the glass filter with 50 mM Tris hydrochloride (pH 7.4), the radioactivity of the receptor was measured with a liquid scintillation counter. The binding detected in the presence of 10 μM of serotonin binoxalate was referred to as the nonspecific binding.
IC50 was calculated by the probit method, while Ki was determined in accordance with the following formula: Ki=IC50(1+c/Kd) wherein c represents the concentration of the radioisotope-labeled compound, and Kd represents the dissociation constant of the radioisotope-labeled compound with respect to the receptor determined by Scatchard's analysis.

Regarding `CCN1CCN(c2nc(-c3ccc(O[C@@H](C)CO)cc3)cc3ccsc23)CC1` [Example 438, 7-(4-ethylpiperazin-1-yl)-5-[4-(1-methyl-2-hydroxyethoxy)phenyl]thieno[2,3-c]pyridine dihydrochloride], the pKi is 7.73 on serotonin 2 receptor and 7.20 at serotonin 1A receptor.
On to `CCN1CCN(c2nc(-c3ccc(C(N)=O)cc3)cc3ccccc23)CC1` [Example 408, 1-(4-ethylpiperazin-1-yl)-3-(4-carbamoylphenyl)isoquinoline], for which the pKi is 7.44 at serotonin 2 receptor and 7.70 at serotonin 1A receptor.
For `CCN1CCN(c2nc(-c3ccc(S(=O)(=O)CC)cc3)cc3ccsc23)CC1` [Example 450, 7-(4-ethylpiperazin-1-yl)-5-(4-ethanesulfonylphenyl)thieno[2,3-c]pyridine dihydrochloride] the same measures were 7.82 and 8.16.
In the case of `CCN1CCN(c2nc(-c3ccc(OCC4OCCO4)cc3)cc3ccccc23)CC1` [Example 336, 1-(4-ethylpiperazin-1-yl)-3-[4-(1,3-dioxolan-2-ylmethyloxy)phenyl]isoquinoline], the pKi is 8.59 at serotonin 2 receptor and 7.34 on serotonin 1A receptor.
As to `CCN1CCN(c2nc(-c3ccc(OCC(C)(C)O)cc3)cc3cccnc23)CC1` [Example 250, 8-(1-ethylpiperazin-4-yl)-6-[4-(2-hydroxy-2-methylpropoxy)phenyl]-1,7-naphthyridine Dihydrochloride], the results for the pKi at serotonin 2 receptor and on serotonin 1A receptor were 8.12 and 6.91, respectively.
As to `CCCS(=O)(=O)c1ccc(-c2cc3ccccc3c(N3CCN(CC)CC3)n2)cc1` [Example 349, 1-(4-ethylpiperazin-1-yl)-3-[4-propylsulfonyl)phenyl]isoquinoline dihydrochloride], the pKi was 8.30 at serotonin 2 receptor and 8.49 at serotonin 1A receptor.
Turning to `CCN1CCN(c2nc(C#Cc3ccccc3)cc3ccccc23)CC1` [Example 177, 1-(1-Ethylpiperazin-4-Yl)-3-(Phenylethynyl)Isoquinoline Dihydrochloride], the pKi at serotonin 2 receptor is 9.30; on serotonin 1A receptor, 7.35.
`CCN1CCN(c2nc(-c3ccc(OC4CCCCC4O)cc3)cc3ccccc23)CC1` (centres unmarked) [Example 426, 1-(4-ethylpiperazin-1-yl)-3-[4-(2-hydroxycyclohexyloxy)phenyl]isoquinoline Hydrochloride]: the pKi on serotonin 2 receptor was 8.15; on serotonin 1A receptor, 6.88.
On to `CCCN(C)S(=O)(=O)c1ccc(-c2cc3ccccc3c(N3CCN(CC)CC3)n2)cc1` [Example 358, 1-(4-ethylpiperazin-1-yl)-3-[4-(N-methyl-N-propylsulfamoyl)phenyl]isoquinoline dihydrochloride], for which the pKi on serotonin 2 receptor was 7.72; at serotonin 1A receptor it was 8.19.
With `CCN1CCN(c2nc(-c3ccc(N4CCOCC4)nc3)cc3ccccc23)CC1` [Example 147, 1-(4-ethylpiperazin-1-yl)-3-[2-(morpholin-4-yl)pyridin-5-yl]isoquinoline trihydrochloride], the pKi at serotonin 2 receptor is 8.77; at serotonin 1A receptor, 8.19.
For `CCN1CCN(c2nc(-c3ccnc(OCCOC)c3)cc3ccccc23)CC1` [Example 407, 1-(4-ethylpiperazin-1-yl)-3-[2-(2-methoxyethoxy)pyridin-4-yl]isoquinoline], in that order: 7.58 and 7.75.
Consider `CCN1CCN(c2nc(-c3ccc(OCCO)nc3)cc3ccccc23)CC1` [Example 125, 1-(1-Ethylpiperazin-4-yl)-3-[2-(2-Hydroxyethoxy)Pyridin-5-yl]Isoquinoline], for which the figures for the pKi on serotonin 2 receptor and on serotonin 1A receptor were 8.16 and 7.57, respectively.
With `CCN1CCN(c2nc(/C=C/c3ccc(N4CCOCC4)nn3)cc3ccccc23)CC1` [Example 214, 3-{(E)-2-[3-(4-Morpholinyl)Pyridazin-6-Yl]Ethenyl}-1-(4-Ethylpiperazin-1-Yl)Isoquinoline Oxalate], the pKi is 8.12 on serotonin 2 receptor and 7.81 at serotonin 1A receptor.
For `CCN1CCN(c2nc(-c3ccc(NCCO)cc3)cc3ccccc23)CC1` [Example 67, 3-[4-(2-Hydroxyethyl)Aminophenyl]-1-(4-Ethylpiperazin-1-Yl)Isoquinoline Hydrochloride], in that order: 8.18 and 7.56.
For `CCN1CCN(c2nc(-c3ccc(N4CCSCC4)nc3)cc3ccsc23)CC1` [Example 264, 5-[2-(4-thiomorpholinyl)pyridin-5-yl]-7-(4-ethylpiperazine-1-yl)thieno[2,3-c]pyridine Hydrochloride] the same measures were 8.48 and 7.21.
For `CCN1CCN(c2nc(/C=C/c3cc(N4CCOCC4)ncn3)cc3ccccc23)CC1` [Example 215, 3{(E)-2-[4-(4-morpholinyl)pyrimidin-6-yl]ethenyl}-1-(4-ethylpiperazin-1-yl)isoquinoline oxalate] the same measures were 7.68 and 7.28.
With `CCCCc1ccc(-c2cc3ccccc3c(N3CCN(CC)CC3)n2)cn1` [Example 131, 1-(1-Ethylpiperazin-4-yl)-3-(2-Butylpyridin-5-yl)Isoquinoline], the pKi at serotonin 2 receptor was 8.24; on serotonin 1A receptor, 8.19.
For `CCCS(=O)(=O)c1ccc(-c2cc3ccsc3c(N3CCN(CC)CC3)n2)cc1` [Example 451, 7-(4-ethylpiperazin-1-yl)-5-(4-propanesulfonylphenyl)thieno[2,3-c]pyridine dihydrochloride], in that order: 7.42 and 8.11.
With `CCN1CCN(c2nc(-c3ccc(C4=CCOCC4)nc3)cc3ccccc23)CC1` [Example 155, 3-[2-(5,6-dihydro-2H-pyran-4-yl)pyridin-5-yl]-1-(4-ethylpiperazin-1-yl)isoquinoline oxalate], the pKi was 8.36 on serotonin 2 receptor and 7.70 on serotonin 1A receptor.
For `CCN1CCN(c2nc(C#Cc3ncccc3OCCO)cc3ccccc23)CC1` [Example 188, 1-(1-Ethylpiperazin-4-Yl)-3-[3-(2-Hydroxyethoxy)-2-Pyridyl]Ethynylisoquinoline] the same measures were 6.97 and 8.35.
For `CCN1CCN(c2nc(NS(=O)(=O)c3ccccc3)cc3ccccc23)CC1` [Example 422, 3-benzenesulfoneamide-1-(4-ethylpiperazin-1-yl)isoquinoline] the same measures were 6.76 and 8.27.
As for `CCN1CCN(c2nc(-c3ccc(OCCO)cc3OC)cc3ccccc23)CC1` [Example 425, 1-(4-ethylpiperazin-1-yl)-3-[4-(2-hydroxyethoxy)-2-methoxyphenyl]isoquinoline], the results for the pKi on serotonin 2 receptor and at serotonin 1A receptor were 8.59 and 6.49, respectively.
On to `CCN1CCN(c2nc(-c3ccc(OC)cc3)cc3ccoc23)CC1` [Example 467, 7-(4-ethylpiperazin-1-yl)-5-(4-methoxyphenyl)furo[2,3-c]pyridine dihydrochloride], for which the pKi on serotonin 2 receptor was 7.03; at serotonin 1A receptor, 7.69.
With `CCN1CCN(c2nc(-c3ccc(N4CCN(C(C)=O)CC4)cc3)cc3ccccc23)CC1` [Example 100, 3-[4-(4-Acetylpiperazin-1-yl)phenyl]-1-(4-ethylpiperazin-1-yl)isoquinoline Trihydrochloride], the pKi at serotonin 2 receptor is 8.25; at serotonin 1A receptor, 7.90.
For `CCN1CCN(c2nc(-c3ccc(OC)c(CCCCO)c3)cc3ccccc23)CC1` [Example 35, 3-[3-(4-hydroxybutyl)-4-methoxyphenyl]-1-(4-ethylpiperazin-1-yl)isoquinoline hydrochloride] the same measures were 8.24 and 7.45.
